Key:
[1] = Plasma and urinary aldosterone in AngII-infused rats; format: in vivo, rat; details: following AngII infusion
Experimental: FIGS. 31A, B, and C show the role of PRR in AngII-induced aldosterone production in vivo and in vitro. Plasma aldosterone concentrations (A) and urinary aldosterone excretion (B) were determined in control, AngII, AngII+IM PRO20, and AngII+IV PRO20 rats. The direct action of PRO20 in aldosterone regulation was tested in primary culture of rat IMCD cells (C). For the in vitro study, the cells were exposed to vehicle, AngII, or AngII+PRO20 and the medium were assayed for aldosterone release. N=3-6 per group. Data are means±SE.
Under anesthesia, blood was collected puncturing vena cava, and plasma was recovered by centrifugation. At the end of experiments, animals were placed in metabolic cages for urine collections. The renal inner medulla was homogenized in 2.6 mM EDTA, 3.4 mM hydroxyquinoline, 5 mM ammonium acetate, 200 μM PMSF, and 0.256 μM dimercaprol. […] Renin activity in urine, tissue homogenates, and cell culture medium was determined by measurement of AngI generation using an ELISA kit and it was performed in the native condition, active renin content with excessive angiotensinogen, and total renin content with excessive angiotensinogen plus trypsinization as previously described. Aldosterone concentrations in plasma, urine, and cell culture medium were measured using a commercial ELISA kit (Cat#:10004377, Cayman Chemical). […]

α-ENaC = experiment: Renal ENaC expression in AngII-infused rats (immunoblotting, qRT-PCR); format: in vivo, rat; details: following AngII infusion
Experimental: FIGS. 28A, 28B, 28C, 28D, 28E, 28F, 28G and 28H show the effect of IMPRO on renal inner medullary ENaC expression during AngThinduced hypertension. The expression of the three subunits of ENaC (α-, β-, and γ-) in the inner medulla of control, AngII and AngII+IM RPO rats was determined by immunobotting (A-E) and qRT-PCR (F-H). N=6 per group. Data are mean+SE.
Renal tissues were lysed and subsequently sonicated in PBS that contained 1% Triton x-100, 250 μM phenylmethanesulfonyl fluoride (PMSF), 2 mM EDTA, and 5 mM dithiothrietol (DTT) (pH 7.5). Protein concentrations were determined by the use of Coomassie reagent. […] of protein for each sample was denatured in boiling water for 10 min, then separated by SDS-PAGE, and transferred onto nitrocellulose membranes. The blots were blocked 1 h with 5% nonfat dry milk in Tris-buffered saline (TBS), followed by incubation for overnight with primary antibody. […] The blots were quantitated by using Imagepro-plus. […]
Epithelial sodium channel (ENaC) is the major sodium channel on the apical membrane of the CD Immunoblotting and qRT-PCR analysis of renal ENaC expression was performed. […] In contrast, α-ENaC protein abundance in the cortex was unaffected. qRT-PCR detected 1.6-fold increase of α-ENaC mRNA expression in the inner medulla, which was abolished by IM PRO (FIG. 28F). […]

renal medullary PRR = renal medullary PRR (Rattus norvegicus, UniProt Q6AXS4); experiment: AngII-induced hypertension in uninephrectomized SD rats, telemetry MAP; format: in vivo; details: AngII 100 ng/kg/min s.c. alone or with intramedullary PRO20 120 μg/kg/d; day 0 MAP 108+5.8
Experimental: FIGS. 26A, 26B, 26C, 26D, and 26E show the characterization of PRO20 and examination of its effect on AngII-induced hypertension. Comparison of PRO20 (B and D) and the HRP (A and C) in inhibiting prorenin-induced signaling. Primary rat IMCD cells were pretreated for 1 h with PRO20 (1.5 μM) or the HRP (2.0 μM) and then were exposed to 100 nM prorenin for 10 min. ERK1/2 phosphorylation was determined by immunoblotting. (E) Effect of intramedullary delivery of PRO20 on AngII-induced hypertension. Uninephrectomized SD rats were divided into the following three groups: (1) AngII, (2) AngII+IM PRO (intramedullary PRO20 infusion), and (3) AngII+IV PRO20 (intravenous PRO20 infusion). AngII was subcutaneously infused at 100 ng/kg/min via an osmotic mini-pump. IM PRO (PRO20 at 120 μg/kg/d) was performed via a catheter chronically implanted in the renal medulla. To control the spillover, IV PRO (PRO20 at 120 μg/kg/d) was performed via catheterization of jugular vein. Telemetry was performed to monitor mean arterial pressure (MAP) and it was turned on 4 h per day from 5:00 PM to 9:00 PM for 7 days. #p<0.01 vs. intravenous PRO20; *, p<0.05 vs. AngII alone. N=3-6 per group. Data are mean+SE. […]

renal medullary PRR, sequence (Q6AXS4 18-350): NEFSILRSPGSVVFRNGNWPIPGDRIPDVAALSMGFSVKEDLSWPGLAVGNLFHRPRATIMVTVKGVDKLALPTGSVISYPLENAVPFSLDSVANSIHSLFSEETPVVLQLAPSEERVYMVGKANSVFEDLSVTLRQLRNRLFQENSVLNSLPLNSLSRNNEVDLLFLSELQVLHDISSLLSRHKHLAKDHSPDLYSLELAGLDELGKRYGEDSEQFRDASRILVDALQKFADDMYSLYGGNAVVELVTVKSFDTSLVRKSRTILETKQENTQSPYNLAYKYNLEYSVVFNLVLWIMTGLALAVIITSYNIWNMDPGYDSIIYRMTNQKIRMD

## Angiotensin II (DRVYIHPF; Angiotensin-2; UniProt P01019 25-32, looked up) [AngII]
[1]
  increase in aldosterone levels in the plasma: 60%
  increase in aldosterone levels in the urine: 3.2 fold
α-ENaC; immunoblotting
  increase in renal medullary α-ENaC protein abundance: 2.2 fold
α-ENaC; qRT-PCR
  increase of α-ENaC mRNA expression in the inner medulla: 1.6 fold
Renal medullary PRR
  MAP on day 7: 164.7+6.2 mmHg

Source: patent publication US9586995B2, “Compositions and methods of use for (pro)renin receptor” (University of Utah, priority 2012, dated 2017)
